Like-named read-outs stand apart in the source and are kept apart here.
Legend:
M. tuberculosis H37Rv WT = assay: THP-1 macrophage infection study, CFU counting; assay type: cell-based, Mycobacterium tuberculosis; conditions: for activity compared with Ethambutol (EMB) / activity compared with Streptomycin (STR) / reduction of bacteria as compared to the DMSO control: 10 μM; for concentration with significant decrease of bacterial load as compared to the DMSO control / concentration required to reduce the bacterial load below the initial amount on day 0: THP-1 macrophages, MOI 1, day 5
[1] = human, microsomes, pH 7.4; for Half-life: 15 μM; for Compound remaining (%): 0.5 h
M. tuberculosis = assay: microbe, parasite or virus in culture; assay type: cell-based; conditions: for IC50: read-out: IC50 (μM) M.tb/REMA; for IC90: read-out: IC90 (μM) M.tb/REMA; for increase of activity as compared to compound I-12: tested on M. tuberculosis
in vitro = conditions: human, microsomes, pH 7.4
[2] = tested on: M. marinum WT bacteria expressing rfp; conditions: 10 μM
Description: To assess anti-bacterial activity of the compounds in an animal model, zebra-fish embryos were infected by injection of WT M. marinum into the cardinal vein. The bacteria express rfp, which enables the quantification of infection in vivo by measuring red fluorescence. After injection of the bacteria into the fish, the infection was allowed to establish for 20 h. Then, the test compounds or DMSO control were added for three days before the infection was quantified by measuring fluorescence in each fish. […] Dechorionated zebra fish embryos were one day post fertilization infected by microinjection into the cardinal vein with 70 M. marinum WT bacteria expressing rfp. 20 h after infection, the compounds were added to the fish water at the indicated concentrations. After 4 days post infection the fish were imaged on a fluorescent microscope (A) and red pixels were quantified (B). As control served non-treated fish and non-infected fish. The fish water of all groups contained equal amounts of DMSO. Each data point represents a single fish. […] Statistical analysis was determined by ANOVA testing by comparing each group to the non-treated group of fish. p>0.05, not significant, not indicated. p<0.05=*, p<0.01=**, p<0.001=***.

Bacillus subtilis = assay: Cell viability assay (REMA), susceptibility of bacterial cultures; assay type: cell-based; conditions: highest tested amount (80 μM)
[3] = tested on: M. marinum overexpressing ethA; assay type: cell-based
M. interjectum = assay: Cell viability assay (REMA), susceptibility of bacterial cultures; assay type: cell-based; conditions: tested up to 80 μM
[4] = tested on: M. smegmatis overexpressing ethA; assay type: cell-based
M. bovis (BCG) = assay type: cell-based
[5] = tested on: ESX-5 dependent secretion; assay type: cell-based
M. marinum = assay type: cell-based
M. avium = assay: Cell viability assay (REMA), susceptibility of bacterial cultures; assay type: cell-based; conditions: tested up to 80 μM
[6] = tested on: EsxA (ESX-1 dependent secretion); assay type: cell-based
M. kansasii = assay: Cell viability assay (REMA), susceptibility of bacterial cultures; assay type: cell-based; conditions: tested up to 80 μM
[7] = tested on: fast-growing mycobacteria; assay: as above; assay type: cell-based; conditions: up to 80 μM
Escherichia coli = assay: as above; assay type: cell-based; conditions: highest tested amount (80 μM)
[8] = tested on: PE_PGRS and EsxN (ESX-5 dependent secretion); assay type: cell-based
[9] = Mycobacterium tuberculosis, 168 h, replicating M. tuberculosis, seven days, 37° C.
[10] = Mycobacterium tuberculosis, concentration that reduced bacterial viability to lower than 10%
[11] = Mycobacterium tuberculosis, 168 h

SMILES: CCCNC(=O)CSc1nc(-c2ccccc2)ns1 [Compound I-1]
- activity compared with Ethambutol (EMB) (M. tuberculosis H37Rv WT): as active as EMB
- activity compared with Streptomycin (STR) (M. tuberculosis H37Rv WT): higher activity than STR
- reduction of bacteria as compared to the DMSO control (M. tuberculosis H37Rv WT): approximately 100 fold
- concentration with significant decrease of bacterial load as compared to the DMSO control (M. tuberculosis H37Rv WT): 1 µM
- Half-life [1]: 45.6 min
- Compound remaining (%) [1]: 64%
- IC50 (M. tuberculosis; [9]): 0.083 µM
- IC90 (M. tuberculosis; [10]): 0.16 µM
- increase of activity as compared to compound I-12 (M. tuberculosis): eight-fold
- CLint scaled at 15 μM (in vitro): 13.6 mL/min/kg

SMILES: CCCCCNC(=O)CSc1nc(-c2ccc(OC)cc2)ns1 [Compound I-2]
- IC50 (M. tuberculosis; [9]): 0.098 µM
- IC90 (M. tuberculosis; [10]): 0.31 µM

SMILES: CCCNC(=O)CSc1nc(-c2ccc(OC)cc2)ns1 [Compound I-3]
- activity compared with Ethambutol (EMB) (M. tuberculosis H37Rv WT): as active as EMB
- activity compared with Streptomycin (STR) (M. tuberculosis H37Rv WT): higher activity than STR
- reduction of bacteria as compared to the DMSO control (M. tuberculosis H37Rv WT): approximately 100 fold
- concentration with significant decrease of bacterial load as compared to the DMSO control (M. tuberculosis H37Rv WT): 1 µM
- bacterial fluorescence [2]: reduction of bacterial fluorescence to background levels
- Half-life [1]: 9 min
- Compound remaining (%) [1]: 11%
- IC50 (M. tuberculosis; [9]): 0.123 µM
- IC90 (M. tuberculosis; [10]): 0.63 µM
- increase of activity as compared to compound I-12 (M. tuberculosis): four-fold
- CLint scaled at 15 μM (in vitro): 67.4 mL/min/kg

SMILES: COCCNC(=O)CSc1nc(-c2ccc(OC)cc2)ns1 [Compound I-4]
- IC50 (M. tuberculosis; [9]): 0.133 µM
- IC90 (M. tuberculosis; [10]): 0.63 µM

SMILES: O=C(CSc1nc(-c2ccccc2)ns1)NC1CCCC1 [Compound I-5]
- concentration required to reduce the bacterial load below the initial amount on day 0 (M. tuberculosis H37Rv WT): 10 µM
- concentration with significant decrease of bacterial load as compared to the DMSO control (M. tuberculosis H37Rv WT): 3 µM
- Half-life [1]: 70.8 min
- Compound remaining (%) [1]: 75%
- IC50 (M. tuberculosis): 0.256 µM
- IC90 (M. tuberculosis): 0.63 µM
- increase of activity as compared to compound I-12 (M. tuberculosis): two-fold
- CLint scaled at 15 μM (in vitro): 8.78 mL/min/kg

SMILES: C=CCNC(=O)CSc1nc(-c2ccc(OC)cc2)ns1 [Compound I-6]
- IC50 (M. tuberculosis; [11]): 0.291 µM
- IC90 (M. tuberculosis; Mycobacterium tuberculosis): 0.63 µM

SMILES: C#CCNC(=O)CSc1nc(-c2ccc(OC)cc2)ns1 [Compound I-7]
- IC50 (M. tuberculosis; [9]): 0.306 µM
- IC90 (M. tuberculosis; [10]): 0.63 µM

SMILES: COc1cccc(-c2nsc(SCC(=O)NC3CCCC3)n2)c1 [Compound I-8]
- IC50 (M. tuberculosis; [9]): 0.076 µM
- IC90 (M. tuberculosis; [10]): 1.25 µM

SMILES: COc1ccc(-c2nsc(SCC(=O)NC(C)C)n2)cc1 [Compound I-9]
- IC50 (M. tuberculosis; [9]): 0.152 µM
- IC90 (M. tuberculosis; [10]): 1.25 µM

SMILES: CCNC(=O)CSc1nc(-c2ccccc2)ns1 [Compound I-10]
- IC50 (M. tuberculosis; [9]): 0.383 µM
- IC90 (M. tuberculosis; [10]): 1.25 µM

SMILES: COc1ccc(-c2nsc(SCC(=O)N3CCCCC3)n2)cc1 [Compound I-11]
- IC50 (M. tuberculosis; [9]): 0.531 µM
- IC90 (M. tuberculosis; [10]): 1.25 µM

SMILES: COc1ccc(-c2nsc(SCC(=O)NC3CCCC3)n2)cc1 [Compound I-12]
- susceptibility (REMA) (Bacillus subtilis): resistant
- increased susceptibility as compared to the parent WT strain [3]: at least 4 fold
- susceptibility (REMA) (M. interjectum): resistant
- susceptibility on overexpression of ethA [4]: did not render this strain susceptible
- susceptibility (REMA) (M. bovis (BCG)): susceptible
- ESX-5 activity, % of the DMSO treated control [5]: 27%
- increase of MIC towards M. marinum when mspA was over-produced (M. marinum): 2 fold
- more compound required to significantly reduce viability when mspA was over-produced (M. marinum): 4 fold
- reduction in bacterial viability (REMA) (M. marinum): 77%
- susceptibility (REMA) (M. marinum): susceptible
- concentration required to reduce the bacterial load below the initial amount on day 0 (M. tuberculosis H37Rv WT): 10 µM
- concentration with significant decrease of bacterial load as compared to the DMSO control (M. tuberculosis H37Rv WT): 3 µM
- susceptibility (REMA) (M. avium): resistant
- secretion of EsxA [6]: reduced secretion of EsxA
- susceptibility (REMA) (M. kansasii): susceptible
- susceptibility (REMA) [7]: resistant
- susceptibility (REMA) (Escherichia coli): resistant
- IC50 (M. tuberculosis; [11]): 0.535 µM
- IC90 (M. tuberculosis; Mycobacterium tuberculosis): 1.25 µM
- susceptibility (REMA) (M. tuberculosis; tested up to 80 μM): susceptible
- concentration at which reduction of ESX-5 substrates EsxN and PE_PGRS proteins was observed [8]: 10 µM

SMILES: COc1ccc(-c2nsc(SCC(=O)NC3CC3)n2)cc1 [Compound I-13]
- IC50 (M. tuberculosis; [9]): 0.478 µM
- IC90 (M. tuberculosis; [10]): 1.25 µM

SMILES: CCCCNC(=O)CSc1nc(-c2ccc(OC)cc2)ns1 [Compound I-14]
- IC50 (M. tuberculosis; [9]): 0.496 µM
- IC90 (M. tuberculosis; [10]): 1.25 µM

SMILES: COc1ccc(-c2nsc(SCC(=O)N3CCOCC3)n2)cc1 [Compound I-15]
- IC50 (M. tuberculosis; [9]): 0.121 µM
- IC90 (M. tuberculosis; [10]): 2.5 µM

SMILES: Cc1cccc(-c2nsc(SCC(=O)NC3CCCC3)n2)c1 [Compound I-16]
- IC50 (M. tuberculosis; [9]): 0.121 µM
- IC90 (M. tuberculosis; [10]): 2.5 µM

SMILES: O=C(CSc1nc(-c2ccc(Cl)cc2)ns1)NC1CCCC1 [Compound I-17]
- IC50 (M. tuberculosis; [9]): 0.21 µM
- IC90 (M. tuberculosis; [10]): 2.5 µM

SMILES: Cc1cccc(-c2nsc(SCC(=O)N3CCCCC3)n2)c1 [Compound I-18, reference compound]
- IC50 (M. tuberculosis; [9]): 0.251 µM
- IC90 (M. tuberculosis; [10]): 2.5 µM

SMILES: O=C(CSc1nc(-c2cccnc2)ns1)NC1CCCC1 [Compound I-19]
- IC50 (M. tuberculosis; [9]): 0.502 µM
- IC90 (M. tuberculosis; [10]): 2.5 µM

SMILES: COc1ccc(-c2nsc(SCC(=O)Nc3ccccn3)n2)cc1 [Compound I-20]
- IC50 (M. tuberculosis; [9]): 0.502 µM
- IC90 (M. tuberculosis; [10]): 2.5 µM

SMILES: COc1ccc(-c2nsc(SCC(=O)Nc3ccccc3)n2)cc1 [Compound I-21]
- IC50 (M. tuberculosis; [9]): 0.559 µM
- IC90 (M. tuberculosis; [10]): 2.5 µM

Source: patent publication US12472166B2, “Inhibition of mycobacterial type VII secretion” (priority 2019, dated 2025)
